Here are results for five compounds from patent US10168342B2, “Lipid probes and uses thereof” (THE SCRIPPS RESEARCH INSTITUTE, priority 2015, dated 2019).

Like-named read-outs stand apart in the source and are kept apart here.

Assay [1] concerns the target T1, AEA-DA lipid probe targets in Neuro2a cells (Mus musculus, UniProt Q8R2Y0).
T1 sequence (Q8R2Y0 1-336): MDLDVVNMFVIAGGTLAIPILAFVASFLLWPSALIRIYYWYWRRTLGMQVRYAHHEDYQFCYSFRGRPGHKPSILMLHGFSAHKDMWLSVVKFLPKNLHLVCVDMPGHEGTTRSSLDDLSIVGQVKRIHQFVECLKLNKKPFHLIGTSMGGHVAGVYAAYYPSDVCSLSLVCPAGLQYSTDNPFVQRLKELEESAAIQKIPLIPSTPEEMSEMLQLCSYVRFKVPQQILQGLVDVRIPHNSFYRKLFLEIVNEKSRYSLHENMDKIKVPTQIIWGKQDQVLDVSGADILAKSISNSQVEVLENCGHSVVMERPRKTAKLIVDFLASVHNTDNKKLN
To be noted: for SILAC ratio, ABHD6 (Q8R2Y0): Neuro2a cells, AEA-DA probe.

The target in assay [2] is AEA-DA lipid probe targets in Neuro2a cells (Mus musculus, UniProt Q8BWM0).
Chain of AEA-DA lipid probe targets in Neuro2a cells (Mus musculus, UniProt Q8BWM0) (Q8BWM0 whole entry): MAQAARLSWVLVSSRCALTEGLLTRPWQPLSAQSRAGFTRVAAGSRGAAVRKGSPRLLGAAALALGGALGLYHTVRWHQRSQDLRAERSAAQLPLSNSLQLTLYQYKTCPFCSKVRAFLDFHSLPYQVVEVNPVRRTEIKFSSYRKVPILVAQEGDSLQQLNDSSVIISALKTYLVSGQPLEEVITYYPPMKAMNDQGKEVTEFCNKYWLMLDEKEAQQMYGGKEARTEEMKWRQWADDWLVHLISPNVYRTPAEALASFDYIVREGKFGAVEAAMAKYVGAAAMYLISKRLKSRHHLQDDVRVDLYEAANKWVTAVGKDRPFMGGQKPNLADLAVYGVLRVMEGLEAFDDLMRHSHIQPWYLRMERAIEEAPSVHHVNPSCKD
Assay [3] deals with AEA-DA lipid probe targets in Neuro2a cells (Mus musculus, UniProt Q62261).
Chain of AEA-DA lipid probe targets in Neuro2a cells (Mus musculus, UniProt Q62261) (Q62261 whole entry): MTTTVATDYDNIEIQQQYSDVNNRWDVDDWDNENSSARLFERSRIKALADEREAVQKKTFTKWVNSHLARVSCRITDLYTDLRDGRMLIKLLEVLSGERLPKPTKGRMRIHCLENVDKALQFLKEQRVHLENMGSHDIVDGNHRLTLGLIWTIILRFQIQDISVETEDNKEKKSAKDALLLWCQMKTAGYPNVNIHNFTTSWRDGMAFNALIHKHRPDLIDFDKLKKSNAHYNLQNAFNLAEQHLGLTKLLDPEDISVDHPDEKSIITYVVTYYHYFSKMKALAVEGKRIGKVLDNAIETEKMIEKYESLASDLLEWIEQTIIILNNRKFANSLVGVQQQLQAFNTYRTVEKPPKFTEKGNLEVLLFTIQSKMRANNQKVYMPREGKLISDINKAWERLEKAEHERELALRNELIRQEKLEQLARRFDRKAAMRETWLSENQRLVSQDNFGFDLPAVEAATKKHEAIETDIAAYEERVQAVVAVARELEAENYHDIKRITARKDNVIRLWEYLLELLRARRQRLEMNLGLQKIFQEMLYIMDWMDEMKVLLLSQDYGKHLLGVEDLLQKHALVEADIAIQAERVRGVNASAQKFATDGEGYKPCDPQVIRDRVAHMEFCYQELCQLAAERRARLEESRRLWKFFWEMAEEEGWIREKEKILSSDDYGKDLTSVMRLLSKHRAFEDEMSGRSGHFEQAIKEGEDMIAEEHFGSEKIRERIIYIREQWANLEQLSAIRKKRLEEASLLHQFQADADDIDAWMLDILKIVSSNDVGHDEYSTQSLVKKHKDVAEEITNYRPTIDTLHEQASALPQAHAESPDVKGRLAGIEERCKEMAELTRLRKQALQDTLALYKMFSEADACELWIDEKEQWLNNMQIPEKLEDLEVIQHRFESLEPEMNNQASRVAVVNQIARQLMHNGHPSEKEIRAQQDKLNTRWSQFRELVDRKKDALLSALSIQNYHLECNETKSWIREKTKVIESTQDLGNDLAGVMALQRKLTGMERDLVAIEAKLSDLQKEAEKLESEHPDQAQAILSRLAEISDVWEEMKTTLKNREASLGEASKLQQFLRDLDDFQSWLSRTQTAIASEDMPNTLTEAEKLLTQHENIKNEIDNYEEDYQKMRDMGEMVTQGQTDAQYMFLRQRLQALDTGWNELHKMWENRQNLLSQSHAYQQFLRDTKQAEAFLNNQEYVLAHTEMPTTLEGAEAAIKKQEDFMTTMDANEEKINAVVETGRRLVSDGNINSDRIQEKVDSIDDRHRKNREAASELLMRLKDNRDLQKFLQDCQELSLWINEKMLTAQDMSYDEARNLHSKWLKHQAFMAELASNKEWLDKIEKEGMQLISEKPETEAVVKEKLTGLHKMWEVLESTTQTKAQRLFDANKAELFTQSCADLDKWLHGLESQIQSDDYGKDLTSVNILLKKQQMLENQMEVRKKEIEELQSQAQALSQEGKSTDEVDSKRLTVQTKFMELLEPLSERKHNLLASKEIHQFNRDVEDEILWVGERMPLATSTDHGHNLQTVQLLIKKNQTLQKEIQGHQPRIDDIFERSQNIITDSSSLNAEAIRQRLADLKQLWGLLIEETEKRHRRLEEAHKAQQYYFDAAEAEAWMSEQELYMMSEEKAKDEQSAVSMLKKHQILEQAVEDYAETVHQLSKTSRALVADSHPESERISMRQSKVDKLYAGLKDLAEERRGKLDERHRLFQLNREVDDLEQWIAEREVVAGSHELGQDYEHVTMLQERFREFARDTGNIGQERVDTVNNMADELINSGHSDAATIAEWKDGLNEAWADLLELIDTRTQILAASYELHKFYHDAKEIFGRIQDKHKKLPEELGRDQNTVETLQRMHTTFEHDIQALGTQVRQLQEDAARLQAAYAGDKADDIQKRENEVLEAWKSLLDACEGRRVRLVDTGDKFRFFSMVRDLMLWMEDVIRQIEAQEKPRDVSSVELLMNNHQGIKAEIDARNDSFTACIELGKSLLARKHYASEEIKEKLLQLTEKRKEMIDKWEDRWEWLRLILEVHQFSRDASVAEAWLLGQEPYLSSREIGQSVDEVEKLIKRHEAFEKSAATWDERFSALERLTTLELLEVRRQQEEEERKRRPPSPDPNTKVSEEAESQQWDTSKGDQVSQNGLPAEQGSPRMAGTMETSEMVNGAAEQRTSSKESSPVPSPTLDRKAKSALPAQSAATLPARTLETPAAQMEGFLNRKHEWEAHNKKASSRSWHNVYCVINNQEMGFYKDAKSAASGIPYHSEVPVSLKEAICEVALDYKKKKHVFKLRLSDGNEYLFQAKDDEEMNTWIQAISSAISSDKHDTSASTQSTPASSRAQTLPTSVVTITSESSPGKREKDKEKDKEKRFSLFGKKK
Assay [4] deals with AEA-DA lipid probe targets in Neuro2a cells (Mus musculus, UniProt Q9EQK7).
Chain of AEA-DA lipid probe targets in Neuro2a cells (Mus musculus, UniProt Q9EQK7) (Q9EQK7 whole entry): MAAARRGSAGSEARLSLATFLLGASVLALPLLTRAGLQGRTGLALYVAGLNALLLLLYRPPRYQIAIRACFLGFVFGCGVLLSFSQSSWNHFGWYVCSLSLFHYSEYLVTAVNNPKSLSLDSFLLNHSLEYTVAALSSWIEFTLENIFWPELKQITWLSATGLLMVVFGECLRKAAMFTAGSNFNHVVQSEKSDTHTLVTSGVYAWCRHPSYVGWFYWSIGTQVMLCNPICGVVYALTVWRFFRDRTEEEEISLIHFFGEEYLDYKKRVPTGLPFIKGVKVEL
Assay [5] deals with AEA-DA lipid probe targets in Neuro2a cells (Mus musculus, UniProt O55143).
Chain of AEA-DA lipid probe targets in Neuro2a cells (Mus musculus, UniProt O55143) (O55143 whole entry): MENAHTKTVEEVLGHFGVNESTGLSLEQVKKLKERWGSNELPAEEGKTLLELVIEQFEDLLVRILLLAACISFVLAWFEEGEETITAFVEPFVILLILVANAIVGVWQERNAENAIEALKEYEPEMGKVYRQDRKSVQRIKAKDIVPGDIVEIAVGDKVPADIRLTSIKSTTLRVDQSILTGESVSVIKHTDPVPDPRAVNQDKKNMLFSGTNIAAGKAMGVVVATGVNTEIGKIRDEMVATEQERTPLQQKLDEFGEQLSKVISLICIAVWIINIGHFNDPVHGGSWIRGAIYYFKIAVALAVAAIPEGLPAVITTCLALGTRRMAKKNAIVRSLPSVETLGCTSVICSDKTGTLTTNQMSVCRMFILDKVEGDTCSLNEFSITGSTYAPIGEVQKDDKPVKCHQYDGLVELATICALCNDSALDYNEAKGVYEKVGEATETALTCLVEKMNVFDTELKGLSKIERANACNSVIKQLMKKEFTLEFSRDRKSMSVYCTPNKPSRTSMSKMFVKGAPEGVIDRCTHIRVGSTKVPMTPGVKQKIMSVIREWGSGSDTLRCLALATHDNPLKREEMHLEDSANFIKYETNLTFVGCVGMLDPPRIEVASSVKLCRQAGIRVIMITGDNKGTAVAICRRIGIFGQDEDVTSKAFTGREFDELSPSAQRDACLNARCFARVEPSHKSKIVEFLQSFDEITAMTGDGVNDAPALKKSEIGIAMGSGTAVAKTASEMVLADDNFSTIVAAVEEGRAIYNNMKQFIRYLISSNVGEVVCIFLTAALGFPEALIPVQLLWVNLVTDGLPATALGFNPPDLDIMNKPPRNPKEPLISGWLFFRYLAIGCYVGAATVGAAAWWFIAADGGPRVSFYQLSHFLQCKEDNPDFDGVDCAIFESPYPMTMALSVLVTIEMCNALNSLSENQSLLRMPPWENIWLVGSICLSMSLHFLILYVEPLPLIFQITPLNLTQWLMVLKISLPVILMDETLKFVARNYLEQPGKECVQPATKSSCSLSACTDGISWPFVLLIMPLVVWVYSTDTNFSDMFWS
Assay [6] deals with T2, AEA-DA lipid probe targets in Neuro2a cells (Mus musculus, UniProt Q8BXN9).
T2 sequence (Q8BXN9 22-555): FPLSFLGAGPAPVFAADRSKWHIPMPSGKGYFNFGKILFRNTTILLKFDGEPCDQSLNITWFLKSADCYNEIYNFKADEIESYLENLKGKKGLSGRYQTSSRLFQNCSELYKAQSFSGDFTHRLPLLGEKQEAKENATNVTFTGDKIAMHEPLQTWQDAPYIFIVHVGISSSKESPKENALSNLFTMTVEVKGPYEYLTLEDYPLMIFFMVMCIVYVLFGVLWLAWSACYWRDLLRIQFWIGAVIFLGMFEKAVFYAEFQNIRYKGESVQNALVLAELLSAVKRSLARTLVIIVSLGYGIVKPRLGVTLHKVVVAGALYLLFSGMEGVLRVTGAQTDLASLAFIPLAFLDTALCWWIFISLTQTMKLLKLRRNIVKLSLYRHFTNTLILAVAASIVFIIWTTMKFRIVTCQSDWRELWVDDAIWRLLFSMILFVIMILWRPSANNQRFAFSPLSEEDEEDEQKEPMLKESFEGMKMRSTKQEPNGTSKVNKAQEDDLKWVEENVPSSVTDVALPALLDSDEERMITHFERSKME

In assay [7] the target is T3, AEA-DA lipid probe targets in Neuro2a cells (Mus musculus, UniProt Q9DBH5).
T3 sequence (Q9DBH5 47-358): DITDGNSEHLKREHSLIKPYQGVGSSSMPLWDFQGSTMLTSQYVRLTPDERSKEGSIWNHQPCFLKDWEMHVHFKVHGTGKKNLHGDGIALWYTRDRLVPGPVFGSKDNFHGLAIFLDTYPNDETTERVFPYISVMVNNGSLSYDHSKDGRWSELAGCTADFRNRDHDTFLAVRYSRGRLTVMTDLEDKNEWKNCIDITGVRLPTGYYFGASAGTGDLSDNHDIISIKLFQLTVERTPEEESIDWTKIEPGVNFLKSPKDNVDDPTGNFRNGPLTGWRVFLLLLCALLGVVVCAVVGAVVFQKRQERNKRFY

The target in assay [8] is AEA-DA lipid probe targets in Neuro2a cells (Mus musculus, UniProt Q8BUV8).
Chain of AEA-DA lipid probe targets in Neuro2a cells (Mus musculus, UniProt Q8BUV8) (Q8BUV8 34-551): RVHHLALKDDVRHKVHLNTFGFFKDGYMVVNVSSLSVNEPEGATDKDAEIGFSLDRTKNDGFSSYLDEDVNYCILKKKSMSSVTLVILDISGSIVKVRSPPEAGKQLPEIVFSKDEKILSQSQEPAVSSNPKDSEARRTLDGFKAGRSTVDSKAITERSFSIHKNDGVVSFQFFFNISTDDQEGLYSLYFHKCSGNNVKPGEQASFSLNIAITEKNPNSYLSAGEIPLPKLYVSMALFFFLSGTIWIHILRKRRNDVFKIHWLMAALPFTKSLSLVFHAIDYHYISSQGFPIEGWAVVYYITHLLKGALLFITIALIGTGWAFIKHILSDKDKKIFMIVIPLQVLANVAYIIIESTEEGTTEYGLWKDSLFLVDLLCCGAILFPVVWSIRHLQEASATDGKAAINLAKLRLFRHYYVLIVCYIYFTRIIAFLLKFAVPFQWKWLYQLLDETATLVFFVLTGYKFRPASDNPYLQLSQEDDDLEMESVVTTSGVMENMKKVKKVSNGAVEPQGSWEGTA

Take `CCCCC/C=C\C/C=C\C/C=C\C/C=C\CCCC(=O)NCCO` [AEA, anandamide, reference compound]: in assay [1] (competitor 200 μM), the “SILAC ratio, ABHD6 (Q8R2Y0)” value is recorded as 2.3 and the “SILAC ratio, Abhd6” value is on record as 2.3. In addition, the “SILAC ratio, Ptges2” value in assay [2] (competitor 200 μM) turned out to be 2.1. In addition, in assay [3] (competitor 200 μM), the “SILAC ratio Sptbn1” value is reported as 1.1. Moreover, the “SILAC ratio Icmt” value in assay [4] (competitor 200 μM) amounted to 1.5. In assay [5] (competitor 200 μM), the “SILAC ratio, Atp2a2” value is recorded as 2.2. The “SILAC ratio, Tmem87a” value in assay [6] (competitor 200 μM) is recorded as 1.8. In addition, in assay [7] (competitor 200 μM), the “SILAC ratio Lman2” value turned out to be 1.5. Moreover, the “SILAC ratio, Gpr107” value in assay [8] (competitor 200 μM) was 1.6.

As for `C=CCN(C)CCCCCCOc1ccc(C(=O)c2ccc(Br)cc2)c(F)c1` [Ro 48-8071, reference compound], in assay [1] (competitor 25 μM), the “SILAC ratio, ABHD6 (Q8R2Y0)” value is 1.2 and the “SILAC ratio, Abhd6” value was found to be 1.2. The “SILAC ratio, Ptges2” value in assay [2] (competitor 25 μM) was 1.3. In addition, the “SILAC ratio Sptbn1” value in assay [3] (competitor 25 μM) is recorded as 1.0. In assay [4] (competitor 25 μM), the “SILAC ratio Icmt” value came out at 1.6. For the same compound, the “SILAC ratio, Atp2a2” value in assay [5] (competitor 25 μM) came to 1.2. Besides, the “SILAC ratio, Tmem87a” value in assay [6] (competitor 25 μM) was found to be 2.3. For the same compound, the “SILAC ratio Lman2” value in assay [7] (competitor 25 μM) is 0.7. For the same compound, the “SILAC ratio, Gpr107” value in assay [8] (competitor 25 μM) came out at 1.8.

`CN1CCN(C(=O)c2c(-c3ccccc3)c3cc([N+](=O)[O-])ccc3n2C)CC1` [KML110, (1-Methyl-5-nitro-3-phenyl-1H-indol-2-yl)(4-methylpiperazin-1-yl)methanone]: in assay [1] (competitor 25 μM), the “SILAC ratio, Abhd6” value is 2.6. The “SILAC ratio, Ptges2” value in assay [2] (competitor 25 μM) stood at 1.8. The “SILAC ratio Sptbn1” value in assay [3] (competitor 25 μM) is listed as 1.2. The “SILAC ratio Icmt” value in assay [4] (competitor 25 μM) is 1.0. Moreover, the “SILAC ratio, Atp2a2” value in assay [5] (competitor 25 μM) is 1.3. For the same compound, in assay [6] (competitor 25 μM), the “SILAC ratio, Tmem87a” value is recorded as 1.8. In addition, in assay [7] (competitor 25 μM), the “SILAC ratio Lman2” value was 1.3. For the same compound, the “SILAC ratio, Gpr107” value in assay [8] (competitor 25 μM) is 1.5.

Turning to `O=C(/C=C/c1cccnc1)NCCCCC1CCN(C(=O)c2ccccc2)CC1` [FK-866, reference compound], in assay [1] (competitor 25 μM), the “SILAC ratio, ABHD6 (Q8R2Y0)” value is listed as 1.7 and the “SILAC ratio, Abhd6” value was found to be 1.7. Further, the “SILAC ratio, Ptges2” value in assay [2] (competitor 25 μM) is listed as 1.4. In assay [3] (competitor 25 μM), the “SILAC ratio Sptbn1” value is given as 1.3. In assay [4] (competitor 25 μM), the “SILAC ratio Icmt” value came out at 1.3. For the same compound, in assay [5] (competitor 25 μM), the “SILAC ratio, Atp2a2” value is 1.1. The “SILAC ratio, Tmem87a” value in assay [6] (competitor 25 μM) was determined as 1.1. Besides, the “SILAC ratio Lman2” value in assay [7] (competitor 25 μM) was 1.1. Besides, the “SILAC ratio, Gpr107” value in assay [8] (competitor 25 μM) was 1.0.

As to `CN1CCN(C(=O)c2[nH]c3ccc([N+](=O)[O-])cc3c2-c2ccccc2)CC1` [MJN228, (4-Methylpiperazin-1-yl)(5-nitro-3-phenyl-1H-indol-2-yl)methanone], in assay [1] (competitor 25 μM), the “SILAC ratio, ABHD6 (Q8R2Y0)” value was determined as 1.7. Moreover, the “SILAC ratio, Abhd6” value in assay [1] (competitor 10 μM) was 1.2; in assay [1] (competitor 25 μM) it was 1.7; in assay [1] (competitor 50 μM) it was 2.3; in assay [1] (competitor 100 μM) it was 2.9. The “SILAC ratio, Ptges2” value was 1.3 in assay [2] (competitor 10 μM), 1.4 in assay [2] (competitor 25 μM) and 2.3 in assay [2] (competitor 100 μM). In addition, the figures for the “SILAC ratio Sptbn1” value in assay [3] (competitor 10 μM), in assay [3] (competitor 25 μM) and in assay [3] (competitor 100 μM) were 1.0, 1.2 and 1.3, respectively. For the same compound, the “SILAC ratio Icmt” value is on record as 0.9 in assay [4] (competitor 10 μM), 0.9 in assay [4] (competitor 25 μM), 0.6 in assay [4] (competitor 50 μM) and 0.5 in assay [4] (competitor 100 μM). In addition, the “SILAC ratio, Atp2a2” value in assay [5] (competitor 10 μM) stood at 1.3; in assay [5] (competitor 25 μM) it was 1.4; in assay [5] (competitor 50 μM) it was 1.4; in assay [5] (competitor 100 μM) it was 1.9. For the same compound, the “SILAC ratio, Tmem87a” value in assay [6] (competitor 10 μM) came to 1.3; in assay [6] (competitor 25 μM), 1.9; in assay [6] (competitor 50 μM), 1.6; in assay [6] (competitor 100 μM), 2.7. The “SILAC ratio Lman2” value in assay [7] (competitor 10 μM) is listed as 1.2; in assay [7] (competitor 25 μM), 1.1; in assay [7] (competitor 50 μM), 2.1; in assay [7] (competitor 100 μM), 1.5. Moreover, the “SILAC ratio, Gpr107” value stood at 1.1 in assay [8] (competitor 10 μM), 1.3 in assay [8] (competitor 25 μM), 2.1 in assay [8] (competitor 50 μM) and 2.9 in assay [8] (competitor 100 μM).
